Test [1] concerns the target T1, TrkB (Rattus norvegicus, UniProt Q63604). Put plainly: TrkB activation in primary cortical neurons (p-TrkB Y817 immunoblotting). In kind it is cell-based. Conditions: 500 nM, 30 min, FIG. 27 left. On the set-up: endogenous in cells; host or cells: primary cortical neurons. How it is done: Primary cultured rat cortical neurons were prepared as follows. E17 rat pups were decapitated and cortex was extirpated, cross chopped, and suspended by pipetting for separation in 5% fetal calf serum (FCS), 5% horse serum (HS) DMEM. The cell suspension was then centrifuged at 250×g for 5 minutes. This operation was repeated again. Cells were seeded into polyethyleneimine-coated 10 cm^2 dishes and 12-well plates including coated-coverslips and incubated at 37° C. in 5% CO2/95% air. After 3 hours, the culture medium was changed to Neurobasal containing B-27 supplement (Invitrogen; Carlsbad, Calif.) and incubated for 4 days. For maintenance, half of the culture medium was changed to fresh Neurobasal/B27 every 4 days. After 1 week, the dished cultured neurons were ready for use.
To compare the TrkB activation by the synthetic compounds of Examples 9 and 10 (see FIG. 26), primary cortical cultures were prepared. The cortical neurons were treated with 500 nM of various compounds for 30 min and collected the cell lysates. […] Replacing the H-bond acceptor O atom with hydrogen bond donor NH reduced its stimulatory effect. […] In comparison, 7,8-DHF provoked TrkB activation with the minimal concentration of 100 nM (FIG. 27, right panels).
Target sequence in this assay (Q63604 32-821): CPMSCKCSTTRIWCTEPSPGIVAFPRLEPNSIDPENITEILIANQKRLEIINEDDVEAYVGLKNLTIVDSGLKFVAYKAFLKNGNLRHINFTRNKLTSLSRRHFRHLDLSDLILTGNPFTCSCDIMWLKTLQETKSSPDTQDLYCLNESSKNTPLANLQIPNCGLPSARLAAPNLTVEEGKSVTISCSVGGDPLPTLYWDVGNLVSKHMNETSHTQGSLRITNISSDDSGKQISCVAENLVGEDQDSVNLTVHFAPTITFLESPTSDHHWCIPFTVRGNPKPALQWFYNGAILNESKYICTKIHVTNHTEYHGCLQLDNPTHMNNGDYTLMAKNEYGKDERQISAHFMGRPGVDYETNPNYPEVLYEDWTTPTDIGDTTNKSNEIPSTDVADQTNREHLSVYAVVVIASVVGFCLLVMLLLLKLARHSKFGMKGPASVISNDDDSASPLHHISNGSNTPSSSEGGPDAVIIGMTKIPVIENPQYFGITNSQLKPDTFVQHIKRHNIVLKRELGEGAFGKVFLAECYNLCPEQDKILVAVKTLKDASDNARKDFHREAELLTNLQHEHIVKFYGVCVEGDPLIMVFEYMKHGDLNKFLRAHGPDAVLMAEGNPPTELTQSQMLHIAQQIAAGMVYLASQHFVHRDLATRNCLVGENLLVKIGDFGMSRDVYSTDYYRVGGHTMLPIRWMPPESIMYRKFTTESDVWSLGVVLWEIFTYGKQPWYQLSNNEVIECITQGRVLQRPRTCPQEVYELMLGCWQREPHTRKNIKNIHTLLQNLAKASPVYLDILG

A further test deals with hippocampal neurons. Put plainly: Glutamate-triggered apoptosis in hippocampal neurons. The format is cell-based. Conditions: pretreated 30 minutes, 50 μM glutamate for 16 hours, compared with BDNF, FIG. 6. How it is done:
To examine whether these compounds could promote neuronal survival, hippocampal neurons were prepared and the cultures were pretreated with various flavone derivatives for 30 minutes, followed by treatment with 50 μM glutamate for 16 hours.

Another test relates to T48 cells. Put plainly: Fluorescent apoptotic assay (Staurosporine, MR(DEVD)2) in TrkB stably transfected T48 cells. In kind it is cell-based, murine. The conditions noted are these: for suppression of apoptosis in T48 cell line: Staurosporine-induced apoptosis, FIG. 1B and FIG. 4; for EC50: Mus musculus, T48 cells, FIG. 5, read-out: effective concentration at which 50% (EC50) of the cells are protected from apoptosis. The text has this: Create and test reporter cell lines. In order to identify small molecules that mimic BDNF and activate TrkB, TrkB stably transfected murine cell lines were created. The T48 and T62 cell lines were created by transfecting basal forebrain SN56 cells, which express negligible TrkB, with a TrkB expression construct. […] To test resistance to apoptosis, SN56 cells and the T48 cell line were either untreated or treated with BDNF, and then subjected to an apoptotic assay. Briefly, the cells were treated with 0.75 μM Staurosporine for 9 hours, and 1 hour before the termination of the experiment, the cells were treated with 10 μM MR (DEVD)2. The cells were then fixed with 4% paraformaldehyde for 15 minutes, washed with phosphate buffered saline (PBS), and incubated with Hoechst 33342 for 10 minutes. Cover slides were washed with PBS, mounted, and the cells were examined using a fluorescent microscope to see which cells turned red upon caspase cleavage.
Cell-based screen. To screen a large number of chemicals, a cell-based apoptic assay was developed using a cell permeable fluorescent dye, MR (DEVD)2, which turns red upon caspase cleavage in apoptotic cells. SN56 and T48 cells were plated at 10,000 cells per well in multiple 96-well plates and exposed to 2000 biologically active compounds from the Spectrum Collection Library for 30 minutes at a concentration of 10 μM in DMSO. Following exposure to the compounds, the cells were subjected to the developed fluorescent apoptotic assay described above (method schematically shown in FIG. 2).
In the initial screen, 5 of the 66 positive compounds were flavone derivatives or similar compounds. […] To compare the apoptosis inhibitory activity, the flavone derivatives were preincubated with SN56 and T48 cells, and subsequently were subjected to the fluorescent apoptotic assay as described above. […] Additionally, the effective concentration at which 50% (EC50) of the cells are protected from apoptosis was determined for 7,8-dihydroxyflavone, Cianidanol, Pinocembrin and Diosmetin.

In the next test the test system is Caspase-3 activation. Put plainly: Glutamate-provoked Caspase-3 activation in wild-type and TrkB-/- cortical neurons. In kind it is cell-based, mice. The conditions noted are these: control compounds, FIG. 21. Here is the method: To determine whether 7,8-dihydroxyflavone can selectively activate TrkB receptor and prevent neuronal cell death, cortical neurons were prepared from homozygous pups of TrkB+/−mice, which were mated to the same genotype. […] Glutamate nonselectively elicited weak TrkA phosphorylation in both wild-type and TrkB-null neurons (FIG. 21, row 3).

The next test deals with Erk. Put plainly: Western analysis of Erk phosphorylation in hippocampal neurons. The conditions noted are these: FIG. 9. In kind it is cell-based. Here is the method:
(§1) To further examine whether 7,8-dihydroxyflavone can stimulate TrkB-mediated downstream signaling cascades, Western analysis was performed.
(§2) To probe the time course of 7,8-dihydroxyflavone triggered TrkB activation, hippocampal neurons were treated with 7,8-dihydroxyflavone at 500 nM and phosphorylation of Erk and Akt was determined over time by Western analysis. […] Stimulation of Erk and Akt by 7,8-dihydroxyflavone also occurred in a dose dependent manner.

Test [2] concerns the target T1, TrkB. Put plainly: TrkB receptor dimerization in cotransfected HEK293 cells (GST pull-down). On the set-up: expressed in transfected cells; host or cells: HEK293. The format is cell-based. Here is the method: BDNF is known to bind the TrkB receptor and provoke its dimerization (Barbacid, J. Neurobiol., 25:1386-1403, 1994; Klein et al, Cell, 66:395-403, 1991). To explore whether 7,8-dihydroxyflavone triggers TrkB receptor dimerization, HEK293 cells were cotransfected with GST-TrkB and HA-TrkB or HA-TrkA. The cells were then treated with BDNF or small flavone compounds (0.5 μM) for 30 minutes. The cells were harvested, washed once in PBS, and lysed in 1 ml lysis buffer (50 mM Tris, ph 7.4, 150 mM NaCl, 1 mM EDTA, 0.5% Triton X-100, 1.5 mM Na3VO4, 50 mM NaF, 10 mM sodium pyrophosphate, 10 mM sodium β-glycerophosphate, 1 mM phenylmethylsulfonyl fluoride (PMSF), 5 mg/ml aprotinin, 1 mg/ml leupeptin, 1 mg/ml pepstatin A) and centrifuged for 10 minutes at 14,000×g at 4° C. The supernatant was transferred to a fresh tube and transfected TrkB receptor was separated from the supernatant with glutathione beads, and the coprecipitated proteins were resolved on SDS-PAGE.
Target sequence in this assay (Q63604 32-821): as above
Target sequence in this assay (Q63604 32-821): as above

Another test deals with Akt. Put plainly: Western analysis of Akt phosphorylation in hippocampal neurons. The format is cell-based. Conditions: FIG. 9. How it is done: as §1, §2
A further test relates to Akt and Erk1/2. Put plainly: Akt and Erk1/2 activation in cortical neurons from TrkB F616A knockin mice. The format is cell-based. Conditions: inhibitor 100 nM. Here is the method:
(§3) To explore whether the neuroprotective action of 7,8-dihydroxyflavone is dependent on TrkB activation in vivo, TrkB F616A knockin mice were used. […] To further assess whether 7,8-dihydroxyflavone can mimic BDNF, cortical neurons were prepared from TrkB F616A knockin mice. The cortical neurons were pretreated for 30 minutes with either K252a Trk tyrosine kinase inhibitor (100 nM) or 1NMPP1 inhibitor (100 nM) followed by 0.5 μM 7,8-dihydroxyflavone for 30 minutes.

For a further test, the system named is KA-provoked apoptosis. Put plainly: KA-provoked neuronal cell death in TrkB F616A knockin mice, intraperitoneal (caspase-3 immunoblot). In kind it is in vivo. How it is done: To determine if 1NMPP1 would make neurons treated with 7,8-dihydroxyflavone vulnerable to KA-provoked neuronal cell death, TrkF616A knockin mice were fed with 1NMPP1 (25 mM) in drinking water one day prior to pharmacological reagent treatment. The next day, the mice were intraperitoneally injected with KA (25 mg/kg), or 7,8-dihydroxyflavone (5 mg/kg) 4 hours prior to KA injection. The control mice were injected with either KA or 7,8-dihydroxyflavone alone, or the mice were administered 7,8-dihydroxyflavone 4 hours before KA. In 4 days, the mice were sacrificed and the brains were homogenated and ultracentrifuged. The supernatant was employed for SDS-PAGE and immunoblotting analysis.
On the technique in general: A western blot detects proteins with antibodies after separation by electrophoresis.

In another test the test system is immobility time. Put plainly: Forced swim test in TrkB F616A knockin mice with saline or 1NMPP1 pretreatment. In kind it is in vivo. Conditions: 1NMPP1 25 μM in drinking water. Here is the method:
To assess whether the behavior responses by 7,8-DHF and its derivative are mediated by TrkB receptor, TrkB F616A knockin mice were utilized. The transgenic mice were subjected to saline or 1NMPP1 pretreatment (25 μM), respectively (drinking water provided one day prior to drug injection and maintained throughout whole experiment). The control and/or drugs were provided for five days. […] (Data presented in FIGS. 34, 35, and 36 as mean±SEM; *p<0.05 against vehicle, #P<0.01 against vehicle and ***P<0.0001 against vehicle, student t-test.)

Another test addresses T2, TrkB F616A (Mus musculus, UniProt P15209, F616A).
T2 construct: endogenous in cells; host or cells: cortical neurons of TrkB F616A knock-in mice
Put plainly: TrkB phosphorylation in cortical neurons from TrkB F616A knockin mice. The conditions noted are these: inhibitor 100 nM, pretreated 30 minutes. In kind it is cell-based. Here is the method: as §3

T2 sequence (P15209 32-821 F616A): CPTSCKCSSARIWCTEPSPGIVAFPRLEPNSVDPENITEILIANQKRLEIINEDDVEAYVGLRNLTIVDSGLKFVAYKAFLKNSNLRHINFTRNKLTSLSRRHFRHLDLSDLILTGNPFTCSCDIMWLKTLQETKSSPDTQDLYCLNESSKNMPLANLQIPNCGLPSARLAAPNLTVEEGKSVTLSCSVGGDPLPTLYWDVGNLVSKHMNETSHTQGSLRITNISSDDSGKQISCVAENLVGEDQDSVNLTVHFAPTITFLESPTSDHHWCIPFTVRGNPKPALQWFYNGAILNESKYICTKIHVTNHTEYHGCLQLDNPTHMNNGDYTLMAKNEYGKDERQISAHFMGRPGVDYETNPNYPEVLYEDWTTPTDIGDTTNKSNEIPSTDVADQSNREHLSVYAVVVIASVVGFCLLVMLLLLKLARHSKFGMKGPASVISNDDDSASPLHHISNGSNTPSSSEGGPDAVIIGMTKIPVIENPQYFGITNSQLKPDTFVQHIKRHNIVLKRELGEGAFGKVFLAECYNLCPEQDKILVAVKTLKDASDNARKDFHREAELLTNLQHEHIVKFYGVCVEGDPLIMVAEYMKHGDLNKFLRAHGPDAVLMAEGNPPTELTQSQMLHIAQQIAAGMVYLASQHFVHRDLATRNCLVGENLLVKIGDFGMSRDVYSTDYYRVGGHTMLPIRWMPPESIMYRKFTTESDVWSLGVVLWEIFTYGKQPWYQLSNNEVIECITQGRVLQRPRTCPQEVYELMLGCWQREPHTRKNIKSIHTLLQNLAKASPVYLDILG

`Br.O=c1cc(-c2ccccc2)[nH]c2c(O)c(O)ccc12` [7,8-dihydroxy-2-phenylquinolin-4(1H)-one, 7,8-dihydroxy-2-phenylquinolin-4(1H)-one.HBr]: the TrkB activation result at TrkB [1] was “did not provoke the same level of TrkB activation”.
On the same count and under the same terms, the value for `Br.O=c1cc(-c2cncnc2)oc2c(O)c(O)ccc12` [7,8-dihydroxy-2-(pyrimidin-5-yl)-4H-chromen-4-one.HBr] was “robustly provoked TrkB activation”.
Turning to `Oc1ccc2c(c1)O[C@H](c1ccc(O)c(O)c1)[C@@H](O)C2` [Fisetinidol], the “protection of hippocampal neurons from glutamate-induced apoptosis” value (shortened to “protection of hippocampal neurons”) in the test on hippocampal neurons was “no effect”. For the same molecule, the “suppression of apoptosis in T48 cell line” value (shortened to “suppression of apoptosis”) with T48 cells is listed as “failed to suppress apoptosis”.
With `O=C1C[C@@H](c2ccccc2)Oc2cc(O)cc(O)c21` [Pinocembrin, reference compound], in the test on Caspase-3 activation, the “caspase-3 activation in both wild-type and TrkB-/- neurons” value is on record as “non-selectively suppressed caspase-3 activation in both neurons”. Also, the “Erk activation (Western)” value in the test on Erk was “activated”. Besides, the “protection of hippocampal neurons” value in the test with hippocampal neurons was “comparable anti-apoptosis activity as BDNF”. The TrkB dimerization result on TrkB [2] (GST-TrkB and HA-TrkB, 0.5 μM, 30 minutes, FIG. 14) is recorded as “failed”. In addition, in the test on T48 cells, the EC50 was found to be 100 nM and the “suppression of apoptosis” value is “strongly suppressed apoptosis”.
As for `O=c1c(O)c(-c2ccc(O)c(O)c2)oc2cc(O)cc(O)c12` [Quercetin, reference compound], the “Erk activation (Western)” value in the test with Erk is “activated”.
Turning to `COc1ccc(-c2cc(=O)c3c(O)cc(O)cc3o2)cc1O` [Diosmetin, reference compound], the “caspase-3 activation in both wild-type and TrkB-/- neurons” value with Caspase-3 activation was “non-selectively suppressed caspase-3 activation in both neurons”. The “Erk activation (Western)” value in the test with Erk was “activated”. For the same molecule, the “protection of hippocampal neurons” value with hippocampal neurons is reported as “only slightly protected neurons”. In the test on T48 cells, the EC50 was 500 nM and the “suppression of apoptosis” value is given as “strongly suppressed apoptosis”. In addition, in the test with Akt, the “Akt activation (Western)” value is “activated”.
As for `Oc1cc(O)c2c(c1)O[C@H](c1ccc(O)c(O)c1)[C@@H](O)C2` [Cianidanol], the “Erk activation (Western)” value with Erk is “activated”. The “protection of hippocampal neurons” value in the test with hippocampal neurons is reported as “comparable anti-apoptosis activity as BDNF”. For the same molecule, in the test on T48 cells, the EC50 worked out at 100 nM and the “suppression of apoptosis” value is on record as “strongly suppressed apoptosis”.
Take `CC1=CC(=O)c2ccccc2C1=O` [Menadione]: in the test on hippocampal neurons, the “protection of hippocampal neurons” value is listed as “comparable anti-apoptosis activity as BDNF”. Further, the “suppression of apoptosis” value with T48 cells is listed as “strongly suppressed apoptosis”.
As for `CC(C)(C)n1nc(Cc2cccc3ccccc23)c2c(N)ncnc21` [1NMPP1], in the test on Akt and Erk1/2, the “blocking of BDNF-triggered Akt and Erk1/2 activation” value was “blocked”; the “effect on Akt activation by 7,8-dihydroxyflavone” value is given as “partially decreased Akt activation”; the “effect on Erk1/2 activation by 7,8-dihydroxyflavone” value was “failed to inhibit Erk1/2 activation”. In the test on KA-provoked apoptosis (1NMPP1 in drinking water), the “effect of pretreatment on KA-provoked apoptosis” value is reported as “elevated KA-provoked apoptosis”. Besides, the “apoptosis in TrkB F616A mice, treatment alone without KA” value with KA-provoked apoptosis (FIG. 24) was “no effect on apoptosis”. Also, the “immobility time, 1NMPP1 treated versus saline control groups” value in the test with immobility time is “No significant difference”. Further, the “blocking of BDNF-provoked TrkB phosphorylation” value at TrkB F616A was “selectively blocked”. Besides, the “blocking of 7,8-dihydroxyflavone-provoked TrkB phosphorylation” value at TrkB F616A (0.5 μM 7,8-dihydroxyflavone) was “selectively blocked”.
On to `Oc1ccc([C@H]2Oc3cc(O)cc(O)c3C[C@H]2O)cc1` [Epiafzelechin], for which the “protection of hippocampal neurons” value with hippocampal neurons is recorded as “only slightly protected neurons”. For the same molecule, the “suppression of apoptosis” value in the test with T48 cells is listed as “failed to suppress apoptosis”.
For the molecule `Br.O=c1cc(-c2ccc(F)cc2)[nH]c2c(O)c(O)ccc12` [2-(4-fluorophenyl)-7,8-dihydroxyquinolin-4(1H)-one.HBr], the TrkB activation entry on TrkB [1] is “did not provoke the same level of TrkB activation”.

B1: BDNF: brain-derived neurotrophic factor, positive control, from Roche (protein, UniProt P23560 19-247, looked up)
Neurotrophic factor BDNF …: APMKEANIRGQGGLAYPGVRTHGTLESVNGPKAGSRGLTSLADTFEHVIEELLDEDQKVRPNEENNKDADLYTSRVMLSSQVPLEPPLLFLLEEYKNYLDAANMSMRVRRHSDPARRGELSVCDSISEWVTAADKKTAVDMSGGTVTVLEKVPVSKGQLKQYFYETKCNPMGYTKEGCRGIDKRHWNSQCRTTQSYVRALTMDSKKRIGWRFIRIDTSCVCTLTIKRGR
Take B1: the “dimerization of TrkB with TrkA receptor” value with TrkB [2] (GST-TrkB and HA-TrkA cotransfected) is recorded as “failed to dimerize with TrkA receptor”. The “suppression of apoptosis” value in the test on T48 cells is “decreased apoptosis”.

For the origin of these results see US9895344B2, “Treating various disorders with 7,8-dihydroxyflavone and derivatives thereof” (EMORY UNIVERSITY, priority 2008, dated 2018).
